Here are results for 27 molecules from patent US9815796B2 (Merck Sharp & Dohme Corp., priority 2013, dated 2017).

Molecules are shown by their SMILES.

Sequence of Rhesus PDE2A3 (B3VTJ2 1-941): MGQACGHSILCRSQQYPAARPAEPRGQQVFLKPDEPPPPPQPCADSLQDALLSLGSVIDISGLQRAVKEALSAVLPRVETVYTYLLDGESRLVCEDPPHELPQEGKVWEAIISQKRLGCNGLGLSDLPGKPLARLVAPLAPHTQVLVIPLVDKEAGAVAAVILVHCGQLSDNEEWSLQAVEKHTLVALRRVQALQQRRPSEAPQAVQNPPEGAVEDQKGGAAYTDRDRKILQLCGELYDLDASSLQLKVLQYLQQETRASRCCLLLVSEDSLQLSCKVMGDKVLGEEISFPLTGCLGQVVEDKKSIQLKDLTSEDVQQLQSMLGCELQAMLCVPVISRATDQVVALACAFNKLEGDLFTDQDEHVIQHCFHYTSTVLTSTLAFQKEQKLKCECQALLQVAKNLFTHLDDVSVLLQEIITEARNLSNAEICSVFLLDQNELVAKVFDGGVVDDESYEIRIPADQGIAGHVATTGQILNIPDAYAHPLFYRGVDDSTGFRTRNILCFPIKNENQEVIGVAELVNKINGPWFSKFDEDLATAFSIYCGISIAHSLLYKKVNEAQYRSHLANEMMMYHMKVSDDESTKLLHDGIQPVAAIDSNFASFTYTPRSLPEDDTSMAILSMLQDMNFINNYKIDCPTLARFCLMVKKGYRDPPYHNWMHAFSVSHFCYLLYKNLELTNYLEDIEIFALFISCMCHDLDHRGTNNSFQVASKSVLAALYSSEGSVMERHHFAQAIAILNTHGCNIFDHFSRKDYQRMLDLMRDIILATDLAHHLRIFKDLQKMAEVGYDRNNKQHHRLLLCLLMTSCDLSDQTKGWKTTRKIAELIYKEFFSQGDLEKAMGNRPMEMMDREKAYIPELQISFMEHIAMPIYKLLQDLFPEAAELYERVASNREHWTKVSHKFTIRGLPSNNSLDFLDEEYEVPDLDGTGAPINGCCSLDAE

One assay has as its target Rhesus PDE2A3 (Macaca mulatta, UniProt B3VTJ2). The assay is described as follows: PDE2 fluorescence polarization (IMAP FP) inhibition assay, rhesus enzyme. It is filed as biochemical, rhesus macaque. As to conditions: Rhesus PDE2, Lab A, at 1 uM. The protocol:
The activity of the compounds in accordance with the present invention as PDE2 inhibitors may be readily determined using a fluorescence polarization (FP) methodology (Huang, W., et al., J. Biomol Screen, 2002, 7: 215).
In a typical experiment the PDE2 inhibitory activity of the compounds of the present invention was determined in accordance with the following experimental method. Rhesus PDE2A3 was amplified from rhesus macaque brain cDNA (Biochain Institute, Hayward, Calif.) using primers based on human PDE2A sequence (accession NM_002599.3) where the forward primer containing a Kozak consensus was 5′-[…]-3′ and the reverse primer was 5′-[…]-3′. Amplification with Easy-A High-Fidelity PCR cloning enzyme (Stratagene, La Jolla, Calif.) was 95° C. for 2 minutes followed by thirty three cycles of 95° C. for 40 seconds, 52° C. for 30 seconds, and 72° C. for 2 minutes 48 seconds. Final extension was 72° C. for 7 minutes. The PCR product was TA cloned into pcDNA3.3-TOPO (Invitrogen, Carlsbad, Calif.) according to standard protocol. A consensus sequence was developed from multiple clones and then deposited into GenBank (EU812167). AD293 cells (Stratagene, La Jolla, Calif.) with 70-80% confluency were transiently transfected with rhesus PDE2A3/pcDNA3.3-TOPO using Lipofectamine 2000 according to manufacturer specifications (Invitrogen, Carlsbad, Calif.). Cells were harvested 48 hours post-transfection and lysed by sonication (setting 3, 10×5 sec pulses) in a buffer containing 20 mM HEPES pH 7.4, 1 mM EDTA and Complete Protease Inhibitor Cocktail Tablets (Roche, Indianapolis, Ind.). Lysate was collected by centrifugation at 75,000×g for 20 minutes at 4° C. and supernatant utilized for evaluation of PDE2 activity. The fluorescence polarization assay for cyclic nucleotide phosphodiesterases was performed using an IMAP® FP kit supplied by Molecular Devices, Sunnyvale, Calif. (product # R8139). […] Assays were performed at room temperature in 384-well microtiter plates with an incubation volume of 20.2 μL. Solutions of test compounds were prepared in DMSO and serially diluted with DMSO to yield 8 μL of each of 10 solutions differing by 3-fold in concentration, at 32 serial dilutions per plate. […] 0% of inhibition is determined by using DMSO (1% final concentrations).
A Labcyte Echo 555 (Labcyte, Sunnyvale, Calif.) is used to dispense 200 nL from each well of the titration plate to the 384 well assay plate. Ten microliters of a solution of enzyme (1/2000 final dilution from aliquots; sufficient to produce 20% substrate conversion) was added to the assay plate. Next 10 uL of a separate solution of the substrate FAM-labeled cAMP (50 nM final concentration product # R7506 from Molecular Devices) and the activator cGMP (1 uM final concentration), prepared in the assay buffer (10 mM Tris HCl, pH 7.2, 10 mM MgCl2, 0.05% NaN3 0.01% Tween-20, and 1 mM DTT) was added to the assay plate and shaken to mix. The reaction is allowed to proceed at room temperature for 60 minutes. A binding solution is then made from the kit components, comprised of 80% Solution A, 20% Solution B and binding reagent at a volume of 1/600 the total binding solution. The enzymatic reaction is stopped by addition of 60 μL of the binding solution to each well of the assay plates and the plates are sealed and shaken for 30 seconds. The plate was incubated at room temperature for at least one hour prior to determining the fluorescence polarization (FP). The parallel and perpendicular fluorescence of each well of the plate was measured using a Tecan Genios Pro plate reader (Tecan, Switzerland) or Perkin Elmer EnVision™ plate reader (Waltham, Mass.). Fluorescence polarization (mP) was calculated from the parallel (S) and perpendicular (P) fluorescence of each sample well and the analogous values for the median control well, containing only substrate (So and Po), using the following equation: Polarization (mP)=1000*(S/So−P/Po)/(S/So+P/Po).
On to `C[C@@H](NC(=O)c1cc(=O)[nH]c(-c2ccccc2)n1)c1ccc(C(F)(F)F)c2ccccc12` [Example 153], for which the “Rhesus PDE2 % inh. at 1 uM - Lab A” value is 41 % inh.

Still in this assay, the particulars now being: Rhesus PDE2, Lab A; read-out: Rhesus PDE2 Ki (nM) - Lab A.
As for `O=C(NCc1ccc(C(F)(F)F)cc1Cl)c1cc(=O)[nH]c(C2CC2)n1` [Example 229, N-[2-chloro-4-(trifluoromethyl)benzyl]-2-cyclopropyl-6-oxo-1,6-dihydropyrimidine-4-carboxamide], the Ki (commonly the equilibrium dissociation constant of an inhibitor or competing ligand from its target) is 864 nM. With `COc1cc(C(C)NC(=O)c2cc(=O)[nH]c(C3CC3)n2)ccc1C(F)(F)F` (stereo not shown) [Example 226, 2-cyclopropyl-N-{1-[3-methoxy-4-(trifluoromethyl)phenyl]ethyl}-6-oxo-1,6-dihydropyrimidine-4-carboxamide], the Ki turned out to be 505 nM. Still for that read-out and setting: the same measure for `Cc1cc(C(F)(F)F)ccc1CNC(=O)c1cc(=O)[nH]c(C2CC2)n1` [Example 228, 2-cyclopropyl-N-[2-methyl-4-(trifluoromethyl)benzyl]-6-oxo-1,6-dihydropyrimidine-4-carboxamide]: 1430 nM; for `CC(NC(=O)c1cc(=O)[nH]c(-c2ccccc2)n1)c1ccncc1` (stereo not shown) [Example 358, 6-oxo-2-phenyl-N-(1-pyridin-4-ylethyl)-1,6-dihydropyrimidine-4-carboxamide]: 11600 nM; for `O=C(NC1(c2ccc(C(F)(F)F)cc2)CCCC1)c1cc(=O)[nH]c(-c2ncccn2)n1` [Example 72, 6-oxo-N-{1-[4-(trifluoromethyl)phenyl]cyclopentyl}-1,6-dihydro-2,2′-bipyrimidine-4-carboxamide]: 333 nM. `Cc1nc(C(=O)NC(C)c2cccc(-c3ccc(F)cc3)c2)cc(=O)[nH]1` (stereo not shown) [Example 267, N-[1-(4′-fluorobiphenyl-3-yl)ethyl]-2-methyl-6-oxo-1,6-dihydropyrimidine-4-carboxamide]: the inhibition constant Ki was 8060 nM. On the same count and under the same terms, as for `Cc1nc(C(=O)N[C@H](C)c2ccc([S+]([O-])C(F)(F)F)cc2)cc(=O)[nH]1` (stereo partly shown) [Example 330], the figure is 809 nM. As to `COc1ccc(C(NC(=O)c2cc(=O)[nH]c(C3CC3)n2)c2ccc(C(F)(F)F)cc2)cc1` (stereo not shown) [Example 205, 2-cyclopropyl-N-{(4-methoxyphenyl)[4-(trifluoromethyl)phenyl]methyl}-6-oxo-1,6-dihydropyrimidine-4-carboxamide], the Ki stood at 694 nM. For `CC(C)c1ccc(CCNC(=O)c2cc(=O)[nH]c(-c3ccccc3)n2)cc1` [Example 348, N-{2-[4-(1-methylethyl)phenyl]ethyl}-6-oxo-2-phenyl-1,6-dihydropyrimidine-4-carboxamide], the Ki is approximately 877 nM. As to `COC(=O)c1ccc(C(C)(C)NC(=O)c2cc(=O)[nH]c(C3CC3)n2)cc1` [Example 215, methyl 4-(1-{[(2-cyclopropyl-6-oxo-1,6-dihydropyrimidin-4-yl)carbonyl]amino}-1-methylethyl)benzoate], the Ki worked out at 967 nM. Consider `C[C@@H](NC(=O)c1cc(=O)[nH]c(-c2ccccc2)n1)c1ccc(CN(C)C)cc1` [Example 365, N-[(1R)-1-{4-[(dimethylamino)methyl]phenyl}ethyl]-6-oxo-2-phenyl-1,6-dihydropyrimidine-4-carboxamide], for which the Ki was 6850 nM. `COc1ccc([C@@H](C)NC(=O)c2cc(=O)[nH]c(C3CC3)n2)cc1` [Example 216, 2-cyclopropyl-N-[(1R)-1-(4-methoxyphenyl)ethyl]-6-oxo-1,6-dihydropyrimidine-4-carboxamide]: the Ki amounted to 247 nM. Turning to `CC(NC(=O)c1cc(=O)[nH]c(-c2ccccc2)n1)c1ccc(F)cc1` (stereo not shown) [Example 343, N-[1-(4-fluorophenyl)ethyl]-6-oxo-2-phenyl-1,6-dihydropyrimidine-4-carboxamide], the Ki was approximately 601 nM. Take `C[C@@H](NC(=O)c1cc(=O)[nH]c(-c2ccccc2)n1)c1cccc(C(F)(F)F)c1` [Example 168, 6-oxo-2-phenyl-N-{(1R)-1-[3-(trifluoromethyl)phenyl]ethyl}-1,6-dihydropyrimidine-4-carboxamide]: the Ki stood at 467 nM. On to `CC(NC(=O)c1cc(=O)[nH]c(-c2ncccn2)n1)c1ccc(C(F)(F)F)cc1Cl` (stereo not shown) [Example 96, N-{1-[2-chloro-4-(trifluoromethyl)phenyl]ethyl}-6-oxo-1,6-dihydro-2,2′-bipyrimidine-4-carboxamide], for which the Ki was determined as 1280 nM.

With `C[C@@H](NC(=O)c1cc(=O)[nH]c(-c2ccccc2)n1)c1ccc(C(F)(F)F)c2ccccc12` [Example 153], the Ki is more than 1000 nM.

The same assay, now with this note: Rhesus PDE2, Lab B; read-out: Rhesus PDE2 Ki (nM) - Lab B.
As to `CC(NC(=O)c1cc(=O)[nH]c(-c2ccccc2)n1)c1ccc(-c2ccncc2)cc1` (stereo not shown) [Example 384, 6-oxo-2-phenyl-N-[1-(4-pyridin-4-ylphenyl)ethyl]-1,6-dihydropyrimidine-4-carboxamide], the Ki was 319 nM. Take `CC1(C(NC(=O)c2cc(=O)[nH]c(-c3ccccc3)n2)c2ccc(SC(F)(F)F)c(F)c2)CC1` (single isomer, unassigned) [Example 706, (S)- or (R)-N-((3-fluoro-4-((trifluoromethyl)thio)phenyl)(1-methylcyclopropyl)methyl)-6-oxo-2-phenyl-1,6-dihydropyrimidine-4-carboxamide]: the Ki is more than 2970 nM. For the molecule `CC(NC(=O)c1cc(=O)[nH]c(-c2ccccc2)n1)c1ccccc1-c1ccccc1` (stereo not shown) [Example 416, N-(1-biphenyl-2-ylethyl)-6-oxo-2-phenyl-1,6-dihydropyrimidine-4-carboxamide], the Ki came out at 1770 nM. As for `COc1cc(C(F)(F)F)ccc1[C@H](C)NC(=O)c1cc(=O)[nH]c(-c2ccccc2)n1` [Example 403, N-{(1S)-1-[2-methoxy-4-(trifluoromethyl)phenyl]ethyl}-6-oxo-2-phenyl-1,6-dihydropyrimidine-4-carboxamide], the Ki amounted to 1910 nM. On the same count and under the same terms, as for `CC(NC(=O)c1cc(=O)[nH]c(-c2ccccc2)n1)c1cccc(-c2ccc(F)cc2)c1` (stereo not shown) [Example 396, N-[1-(4′-fluorobiphenyl-3-yl)ethyl]-6-oxo-2-phenyl-1,6-dihydropyrimidine-4-carboxamide], the figure is approximately 20300 nM; as for `CC(C)c1ccc(CCNC(=O)c2cc(=O)[nH]c(-c3ccccc3)n2)cc1` [Example 348, N-{2-[4-(1-methylethyl)phenyl]ethyl}-6-oxo-2-phenyl-1,6-dihydropyrimidine-4-carboxamide], 1500 nM.

For the molecule `Cc1nc(C(=O)N[C@H](C)c2cc(F)c(C(F)(F)F)cc2F)cc(=O)[nH]1` [Example 616], the Ki turned out to be 112 nM. On the same count and under the same terms, the same measure for `Cc1ccc([C@H](C)NC(=O)c2cc(=O)[nH]c(-c3ccccc3)n2)cc1` [Example 364, N-[(1S)-1-(4-methylphenyl)ethyl]-6-oxo-2-phenyl-1,6-dihydropyrimidine-4-carboxamide]: 3950 nM; for `CC(NC(=O)c1cc(=O)[nH]c(-c2ccccc2)n1)c1ccc(F)cc1` (stereo not shown) [Example 343, N-[1-(4-fluorophenyl)ethyl]-6-oxo-2-phenyl-1,6-dihydropyrimidine-4-carboxamide]: 682 nM; for `CC(NC(=O)c1cc(=O)[nH]c(-c2ccccc2)n1)c1cccc(-c2ccccc2)c1` (stereo not shown) [Example 410, N-(1-biphenyl-3-ylethyl)-6-oxo-2-phenyl-1,6-dihydropyrimidine-4-carboxamide]: 1960 nM. Still for that read-out and setting: the same measure for `C[C@@H](NC(=O)c1cc(=O)[nH]c(-c2ccccc2)n1)c1ccc(C(F)(F)F)c2ccccc12` [Example 153]: approximately 1970 nM; for `CC(C)(NC(=O)c1cc(=O)[nH]c(-c2ccccc2)n1)c1cccc(Br)c1` [Example 400, N-[1-(3-bromophenyl)-1-methylethyl]-6-oxo-2-phenyl-1,6-dihydropyrimidine-4-carboxamide]: 1070 nM.

For the molecule `C[C@H](NC(=O)c1cc(=O)[nH]c(-c2ccccc2)n1)c1ccc([N+](=O)[O-])cc1` [Example 458, N-[(1S)-1-(4-nitrophenyl)ethyl]-6-oxo-2-phenyl-1,6-dihydropyrimidine-4-carboxamide], the Ki was 8130 nM. The same measure, in the same setting: as for `CC(C)(NC(=O)c1cc(=O)[nH]c(-c2ccccc2)n1)c1ccccc1` [Example 390, N-(1-methyl-1-phenylethyl)-6-oxo-2-phenyl-1,6-dihydropyrimidine-4-carboxamide], the figure is 1700 nM.
